Among the data in patent US20260125375A1 (Pfizer Inc., priority 2022, published 2026) are Ki and Kd values, retold here.

The target in one assay is T1, C-CBL (residues 46-435) (Homo sapiens, UniProt P22681).
T1 construct: Purified CBL-B (residues 36-427) and C-CBL (residues 46-435) proteins from baculovirus-infected insect cells; made in house; host or cells: baculovirus-infected insect cells
T1 sequence (P22681 46-435): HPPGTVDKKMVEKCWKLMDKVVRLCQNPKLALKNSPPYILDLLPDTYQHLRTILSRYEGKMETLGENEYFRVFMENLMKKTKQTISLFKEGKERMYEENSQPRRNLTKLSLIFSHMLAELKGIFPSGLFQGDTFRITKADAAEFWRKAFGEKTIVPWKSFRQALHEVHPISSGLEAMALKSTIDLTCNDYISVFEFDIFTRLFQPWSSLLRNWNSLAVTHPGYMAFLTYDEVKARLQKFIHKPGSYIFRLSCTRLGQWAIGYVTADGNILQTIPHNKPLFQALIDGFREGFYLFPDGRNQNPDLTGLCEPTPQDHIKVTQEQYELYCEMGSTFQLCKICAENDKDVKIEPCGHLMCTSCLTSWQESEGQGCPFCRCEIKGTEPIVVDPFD
Description: Ligand Displacement Assay (LDA), HTRF competitive binding against BODIPY-labeled fluorescent tracer, C-CBL. The settings on record: geometric mean of the number of tests, read-out: C-CBL Ki (nM) GMean. In outline: (§1)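 Competition with a BODIPY fluorescent tracer was read by HTRF, each protein carrying an N-terminal biotinylated AviTag bound to Tb-streptavidin. Tracer KD values were set beforehand per protein; Ki derives from duplicate three-fold compound series ([…], 2% DMSO), averaged geometrically across tests.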
A general note: TR-FRET usually uses a lanthanide donor and a delayed reading to cut background.

The next assay concerns the target T2, WT CBL-B (36-427) (Homo sapiens, UniProt Q13191).
T2 construct: N-terminal biotinylated WT CBL-B (36-427) and C-CBL (46-435) were captured on a streptavidin (SA) coated sensor chip
As to the kind of experiment: Surface Plasmon Resonance (SPR) assay, binding affinity and kinetics, CBL-B. The settings on record: SPR at 10° C., biotinylated WT CBL-B (36-427) on streptavidin chip; geometric mean; read-out: CBL-B SPR Kd (nM) GMean. In outline: (§2)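 Biotinylated WT CBL-B (36-427) or C-CBL (46-435) captured on streptavidin chip (~5000–6000 RU); binding at 10° C in HEPES buffer pH 7.2 with 2% DMSO. Multi-cycle: 2-fold, 10-point series from 10 or 100 μM, 90 s association. Single-cycle: 3-fold, 6-point, 0.001–1 μM, 120 s association, >5400 s dissociation.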

The target of the next assay is T3, C-CBL (46-435) (Homo sapiens, UniProt P22681).
T3 construct: N-terminal biotinylated WT CBL-B (36-427) and C-CBL (46-435) were captured on a streptavidin (SA) coated sensor chip
T3 sequence (P22681 46-435): T1 sequence (P22681 46-435)
As to the kind of experiment: Surface Plasmon Resonance (SPR) assay, binding affinity and kinetics, C-CBL. The settings on record: SPR at 10° C., biotinylated C-CBL (46-435) on streptavidin chip; geometric mean; read-out: C-CBL SPR Kd (nM) GMean. In outline: as §2

The target of the next assay is T4, CBL-B (residues 36-427) (Homo sapiens, UniProt Q13191).
T4 construct: Purified CBL-B (residues 36-427) and C-CBL (residues 46-435) proteins from baculovirus-infected insect cells; made in house; host or cells: baculovirus-infected insect cells
Description: Ligand Displacement Assay (LDA), HTRF competitive binding against BODIPY-labeled fluorescent tracer, CBL-B. The settings on record: geometric mean of the number of tests, read-out: CBL-B Ki (nM) GMean. The gist of the method: as §1

Molecules are shown by their SMILES.

For orientation: Ki means a dissociation constant, usually derived from enzyme kinetics or from competition with a known ligand. The Kd is the equilibrium constant for the complex coming apart. As to `CC(C)NCc1nc(C(F)(F)F)cc2c(-c3cccc(C4(Cc5nncn5C)COC4)c3)n[nH]c12` [Example C53, N-{[3-(3-{3-[(4-methyl-4H-1,2,4-triazol-3-yl)methyl]oxetan-3-yl}phenyl)-5-(trifluoromethyl)-1H-pyrazolo[3,4-c]pyridin-7-yl]methyl}propan-2-amine], the figures for the Ki at C-CBL (residues 46-435) and at CBL-B (residues 36-427) were 312 nM and 66.6 nM, respectively. Also, the dissociation constant (Kd) on WT CBL-B (36-427) is 61.8 nM; on C-CBL (46-435), 747 nM.
On the same counts, the results for `Cn1cnnc1CC1(c2cccc(-c3n[nH]c4c(CNC5CCCC5)nc(C(F)(F)F)cc34)c2)COC1` [Example C54, N-{[3-(3-{3-[(4-methyl-4H-1,2,4-triazol-3-yl)methyl]oxetan-3-yl}phenyl)-5-(trifluoromethyl)-1H-pyrazolo[3,4-c]pyridin-7-yl]methyl}cyclopentanamine] are 49.4 nM, 10.7 nM, 4.5 nM and 93.2 nM.
As to `Cn1cnnc1CC1(c2cccc(-c3n[nH]c4c(CN5CCNC(=O)C5)nc(C(F)(F)F)cc34)c2)COC1` [Example C55, 4-{[3-(3-{3-[(4-methyl-4H-1,2,4-triazol-3-yl)methyl]oxetan-3-yl}phenyl)-5-(trifluoromethyl)-1H-pyrazolo[3,4-c]pyridin-7-yl]methyl}piperazin-2-one], the inhibition constant (Ki) at C-CBL (residues 46-435) was 65.3 nM; at CBL-B (residues 36-427), 21.2 nM. For the same compound, the dissociation constant (Kd) at WT CBL-B (36-427) came to 3 nM; on C-CBL (46-435), 27.6 nM.
Regarding `CCNCc1nc(C(F)(F)F)cc2c(-c3cccc(C4(Cc5nncn5C)COC4)c3)n[nH]c12` [Example C56, N-{[3-(3-{3-[(4-methyl-4H-1,2,4-triazol-3-yl)methyl]oxetan-3-yl}phenyl)-5-(trifluoromethyl)-1H-pyrazolo[3,4-c]pyridin-7-yl]methyl}ethanamine], the inhibitory constant (Ki) at C-CBL (residues 46-435) turned out to be 201 nM; on CBL-B (residues 36-427) it was 43.6 nM. For the same compound, the dissociation constant (Kd) at WT CBL-B (36-427) came out at 11 nM; on C-CBL (46-435), 150 nM.
Regarding `Cn1cnnc1CC1(c2cccc(-c3n[nH]c4c(CNC5CCC5)nc(C(F)(F)F)cc34)c2)COC1` [Example C57, N-{[3-(3-{3-[(4-methyl-4H-1,2,4-triazol-3-yl)methyl]oxetan-3-yl}phenyl)-5-(trifluoromethyl)-1H-pyrazolo[3,4-c]pyridin-7-yl]methyl}cyclobutanamine], the values for the inhibition constant (Ki) at C-CBL (residues 46-435) and at CBL-B (residues 36-427) were 96.3 nM and 18.9 nM, respectively. Moreover, the results for the Kd on WT CBL-B (36-427) and at C-CBL (46-435) were 3.3 nM and 116 nM, respectively.
For `C[C@H]1CN(Cc2nc(C(F)(F)F)cc3c(-c4cccc(C5(Cc6nncn6C)COC5)c4)n[nH]c23)CCO1` [Example C58, 7-{[(2S)-2-methylmorpholin-4-yl]methyl}-3-(3-{3-[(4-methyl-4H-1,2,4-triazol-3-yl)methyl]oxetan-3-yl}phenyl)-5-(trifluoromethyl)-1H-pyrazolo[3,4-c]pyridine] the same measures were 82.4 nM, 14.8 nM, 5.8 nM and 54.1 nM.
Turning to `Cn1cnnc1CC1(c2cccc(-c3n[nH]c4c(CN[C@@H]5CCOC5)nc(C(F)(F)F)cc34)c2)COC1` [Example C59], the Ki was 171 nM at C-CBL (residues 46-435) and 45.2 nM on CBL-B (residues 36-427). Moreover, the dissociation constant Kd at WT CBL-B (36-427) was 16.8 nM; on C-CBL (46-435), 230 nM.
On the same counts, the results for `Cn1cnnc1CC1(c2cccc(-c3n[nH]c4c(CN[C@@H]5CCC(F)(F)C5)nc(C(F)(F)F)cc34)c2)COC1` [Example C60, (1R)-3,3-difluoro-N-{[3-(3-{3-[(4-methyl-4H-1,2,4-triazol-3-yl)methyl]oxetan-3-yl}phenyl)-5-(trifluoromethyl)-1H-pyrazolo[3,4-c]pyridin-7-yl]methyl}cyclopentan-1-amine] are 57.5 nM, 10.7 nM, 5.1 nM and 41.7 nM.
For `Cn1cnnc1CC1(c2cccc(-c3n[nH]c4c(CN5CCC5)nc(C(F)(F)F)cc34)c2)COC1` [Example C61, 7-[(azetidin-1-yl)methyl]-3-(3-{3-[(4-methyl-4H-1,2,4-triazol-3-yl)methyl]oxetan-3-yl}phenyl)-5-(trifluoromethyl)-1H-pyrazolo[3,4-c]pyridine] the same measures were 232 nM, 53 nM, 12.8 nM and 99.8 nM.
For `Cn1cnnc1CC1(c2cccc(-c3n[nH]c4c(CN5CCCC5)nc(C(F)(F)F)cc34)c2)COC1` [Example C62, 3-(3-{3-[(4-methyl-4H-1,2,4-triazol-3-yl)methyl]oxetan-3-yl}phenyl)-7-[(pyrrolidin-1-yl)methyl]-5-(trifluoromethyl)-1H-pyrazolo[3,4-c]pyridine] the same measures were 162 nM, 34.3 nM, 8.6 nM and 111 nM.
Regarding `Cn1cnnc1CC1(c2cccc(-c3n[nH]c4c(CN5CCOCC5)nc(C(F)(F)F)cc34)c2)COC1` [Example C63, 3-(3-{3-[(4-methyl-4H-1,2,4-triazol-3-yl)methyl]oxetan-3-yl}phenyl)-7-[(morpholin-4-yl)methyl]-5-(trifluoromethyl)-1H-pyrazolo[3,4-c]pyridine], the Ki on C-CBL (residues 46-435) is 120 nM; at CBL-B (residues 36-427), 27 nM. The values for the Kd on WT CBL-B (36-427) and on C-CBL (46-435) were 8 nM and 91.8 nM, respectively.
For `Cn1cnnc1CC1(c2cccc(-c3n[nH]c4c(CN5CCNCC5)nc(C(F)(F)F)cc34)c2)COC1` [Example C64, 3-(3-{3-[(4-methyl-4H-1,2,4-triazol-3-yl)methyl]oxetan-3-yl}phenyl)-7-[(piperazin-1-yl)methyl]-5-(trifluoromethyl)-1H-pyrazolo[3,4-c]pyridine] the same measures were 117 nM, 31.2 nM, 3 nM and 65.2 nM.
On the same counts, the results for `Cn1cnnc1CC1(c2cccc(-c3n[nH]c4c(CN5CC(F)C5)nc(C(F)(F)F)cc34)c2)COC1` [Example C65, 7-[(3-fluoroazetidin-1-yl)methyl]-3-(3-{3-[(4-methyl-4H-1,2,4-triazol-3-yl)methyl]oxetan-3-yl}phenyl)-5-(trifluoromethyl)-1H-pyrazolo[3,4-c]pyridine] are 126 nM, 21.8 nM, 4.9 nM and 127 nM.
For `Cn1cnnc1CC1(c2cccc(-c3n[nH]c4c(CN5C[C@@H](F)[C@H](F)C5)nc(C(F)(F)F)cc34)c2)COC1` [Example C66, 7-{[(3R,4R)-3,4-difluoropyrrolidin-1-yl]methyl}-3-(3-{3-[(4-methyl-4H-1,2,4-triazol-3-yl)methyl]oxetan-3-yl}phenyl)-5-(trifluoromethyl)-1H-pyrazolo[3,4-c]pyridine] the same measures were 112 nM, 20 nM, 9.6 nM and 97 nM.
Take `Cn1cnnc1CC1(c2cccc(-c3n[nH]c4c(CN5C[C@@H](F)[C@@H](F)C5)nc(C(F)(F)F)cc34)c2)COC1` [Example C67, 7-{[(3R,4S)-3,4-difluoropyrrolidin-1-yl]methyl}-3-(3-{3-[(4-methyl-4H-1,2,4-triazol-3-yl)methyl]oxetan-3-yl}phenyl)-5-(trifluoromethyl)-1H-pyrazolo[3,4-c]pyridine]: the Ki on C-CBL (residues 46-435) turned out to be 72.1 nM; on CBL-B (residues 36-427), 12.6 nM. In addition, the dissociation constant (Kd) at WT CBL-B (36-427) worked out at 4.4 nM; on C-CBL (46-435), 51 nM.
For `Cn1cnnc1CC1(c2cccc(-c3n[nH]c4c(CN5C[C@H](F)[C@@H](F)C5)nc(C(F)(F)F)cc34)c2)COC1` [Example C68, 7-{[(3S,4S)-3,4-difluoropyrrolidin-1-yl]methyl}-3-(3-{3-[(4-methyl-4H-1,2,4-triazol-3-yl)methyl]oxetan-3-yl}phenyl)-5-(trifluoromethyl)-1H-pyrazolo[3,4-c]pyridine] the same measures were 124 nM, 24.8 nM, 10.7 nM and 122 nM.
For `Cn1cnnc1CC1(c2cccc(-c3n[nH]c4c(CN5CC(F)(F)C5)nc(C(F)(F)F)cc34)c2)COC1` [Example C69, 7-[(3,3-difluoroazetidin-1-yl)methyl]-3-(3-{3-[(4-methyl-4H-1,2,4-triazol-3-yl)methyl]oxetan-3-yl}phenyl)-5-(trifluoromethyl)-1H-pyrazolo[3,4-c]pyridine] the same measures were 185 nM, 34.5 nM, 30.2 nM and 208 nM.
